Reference: paper PMC3681905, “Anti-Influenza Activity of C60 Fullerene Derivatives” (PLoS ONE, 2013)
Like-named read-outs stand apart in the source and are kept apart here.

Columns and labels:
[1] = test system: influenza A virus A/PR/8/34 (H1N1); assay: microbe, parasite or virus in culture; type: cell-based; conditions: for IC50: read-out: IC50 H1N1 PR8 strain
[2] = test system: influenza A virus A/Aichi/2/68 (H3N2); assay: microbe, parasite or virus in culture; type: cell-based; conditions: for IC50: read-out: IC50 H3N2 Aichi strain
[3] = test system: influenza A virus (A/PR/8/34 (H1N1)); type: cell-based; conditions: 100 µM, A/PR8/34 (H1N1), western blotting
[4] = test system: MDCK cells; conditions: 12.5 to 100 µM, 24 h post-incubation
[5] = target: PA N-terminal endonuclease domain (residues 1–220) of influenza A RNA polymerase (Influenza A virus, UniProt P03433); assay: in vitro PA endonuclease assay with recombinant PA endonuclease domain (M13 mp18 digestion, agarose electrophoresis); type: biochemical, influenza A virus (A/PR/8/34 (H1N1)); conditions: Fig. 2C; for inhibition of the digestion of M13 mp18 by the PA endonuclease domain: 10 µM fullerene derivative
Procedure: For the in vitro PA endonuclease assay, we expressed and purified a recombinant influenza PA endonuclease domain (1–220 residues; Fig. 2A, B) using bacteria as described previously [15]–[17]. For the assay, we incubated 0.1 µM recombinant PA endonuclease domain with 1 or 10 µM of each fullerene derivative (Fig. 2C). The PA endonuclease domain digested M13 mp18 circular single-stranded DNA in vitro (Fig. 2C, lanes 1 and 2) [12]–[16], and we investigated whether any of the fullerene derivatives could inhibit this activity. […] This is the first study to report that fullerene derivatives can inhibit the activity of influenza enzymes. Fullerene derivative no.
The influenza A virus (A/PR/8/34 (H1N1)) RNA polymerase PA plasmid, pBMSA-PA, was obtained from the DNA bank at Riken BioResource Center (Tsukuba, Japan; originally deposited by Susumu Nakada). The cDNA fragment corresponding to the PA N-terminal endonuclease domain (residues 1–220; Fig. 2A) was amplified by polymerase chain reaction (PCR) from pBMSA-PA. The amplified product was subcloned into the pET28a (+) plasmid (Novagen, Madison, WI, USA). The induction of recombinant protein expression was achieved by the addition of isopropyl-D-thiogalactopyranoside, and this was followed by purification using Ni^2+-agarose. The recombinant PA endonuclease domain protein was further purified to near homogeneity (Fig. 2B) using a HiTrapQ-FF column (GE Healthcare, Buckinghamshire, UK).
(§1) Influenza A RNA polymerase PA endonuclease activity assays were performed as described by Dias et al. with some modifications [12]–[16]. Briefly, the pH was lowered from 8.0 to 7.3, and 1 µg M13 mp18 single-stranded circular phage DNA was used as the substrate. A total of 0.25 µg recombinant PA endonuclease domain or full-length PA protein were added to 100 µL assay buffer for each reaction (the final concentration of the protein was approximately 0.1 µM). For the fullerene derivative nuclease assay, no PA protein was added at this step. The fullerene derivatives (summarized in Fig. 1) were then added to the reaction, and the products were analyzed by agarose electrophoresis and stained with ethidium bromide.

[6] = target: full-length PA protein of influenza A RNA polymerase (Influenza A virus, UniProt P03433); assay: in vitro PA endonuclease assay with recombinant full-length PA protein (M13 mp18 digestion); type: biochemical, influenza A virus (A/PR/8/34 (H1N1)); conditions: 10 µM fullerene derivative; Fig. 3C
From the text: We expressed the recombinant full-length PA protein by using a baculovirus to infect Sf9 insect cells (Fig. 3A) and purified it using a Ni-agarose and HiTrap-Q column (Fig. 3B). […] Then, we tested the 12 fullerene derivatives using this same assay. The fullerene derivatives 2–5, 7, 8, 10, and 11 inhibited the endonuclease activity of full-length PA (Fig. 3C), which is consistent with the results for the PA endonuclease domain (Fig. 2C). The M13 mp18 band in the no. 12-treated lane was degraded (Fig. 3C lane 14), the band in the no.
The cDNA fragment corresponding to the full-length protein-coding region of PA was amplified by PCR [38] from pBMSA-PA using the primers PA_start_TOPO ([…]), PA stop ([…]), PA_mid_anti ([…]), and PA_mid_TOPO ([…]). The amplified product was then subcloned into the pENTR/D-TOPO plasmid (Gateway®, Life Technologies™, Carlsbad, CA, USA) using topoisomerase I cloning. The resulting construct was then converted to pDEST10-PA using the clonase (Fig. 3A). The plasmid was transfected into Sf9 insect cells using the helper virus. The resultant baculovirus was again transfected into Sf9 cells. The expressed full-length PA protein was purified using Ni^2+-agarose and a HiTrap Q FF column (GE Healthcare) with the AKTA prime plus system (Fig. 3B).
as §1

[7] = test system: M13 mp18 single-stranded circular phage DNA; assay: fullerene derivative nuclease assay in the absence of PA protein; type: biochemical; conditions: 10 µM; absence of PA endonuclease; M13 mp18 substrate; Fig. 4
[8] = solubility in water
[9] = parameters: method as in PMID 14643333; conditions: cited from earlier work
[10] = parameters: method as in PMID 14643333; conditions: cited from earlier work; remark: listed apart in the source
[11] = Influenza A virus, H3N2, MDCK, 24 h
[12] = 0.1 µM recombinant PA endonuclease domain

Compound	IC50 ([1]; Influenza A virus, MDCK, 24 h) [µM]	IC50 [2, 11] [µM]	expression levels of influenza A NP and NS1 proteins compared with DMSO-treated cells [3]	inhibition of the digestion of M13 mp18 by the PA endonuclease domain [5, 12]	inhibition of the endonuclease activity of full-length PA (M13 mp18 band) [6]	number of NP-positive cells in comparison with the control (DMSO) [1]	further results
COC1Cc2cccc(c2)Oc2c(O)cccc2CCc2ccc(cc2)Oc2cc1cc(O)c2O (centres unmarked) [Marchantin E, reference compound]	43	53	reduced				cell viability vs DMSO-treated cells (MTT) [4]: not significantly different
O=C(O)C1NC(c2ccccc2)C23c4c5c6c7c8c9c(c%10c%11c2c2c4c4c%12c5c5c6c6c8c8c%13c9c9c%10c%10c%11c%11c2c2c4c4c%12c%12c5c5c6c8c6c8c%13c9c9c%10c%10c%11c2c2c4c4c%12c5c6c5c8c9c%10c2c45)C713 (centres unmarked) [no. 11, 5-phenyl [60]fullerenopyrrolidine-2-carboxylic acid]	44	> 100	reduced	significantly inhibited	inhibited	significantly reduced	
CCOC(=O)CN1C(C(=O)O)C23c4c5c6c7c8c9c(c%10c%11c2c2c4c4c%12c5c5c6c6c8c8c%13c9c9c%10c%10c%11c%11c2c2c4c4c%12c%12c5c5c6c8c6c8c%13c9c9c%10c%10c%11c2c2c4c4c%12c5c6c5c8c9c%10c2c45)C73C1C(=O)OCC (centres unmarked) [no. 10, 1-ethoxycarbonylmethyl [60]fullerenopyrrolidine-2,5-dicarboxylic acid 2-ethyl ester]	> 100	> 100	slightly reduced	significantly inhibited	inhibited	slightly decreased	
O=C(O)CN1C(C(=O)O)C23c4c5c6c7c8c9c(c%10c%11c2c2c4c4c%12c5c5c6c6c8c8c%13c9c9c%10c%10c%11c%11c2c2c4c4c%12c%12c5c5c6c8c6c8c%13c9c9c%10c%10c%11c2c2c4c4c%12c5c6c5c8c9c%10c2c45)C73C1C(=O)O (centres unmarked) [no. 4, 1-carboxymethyl [60]fullerenopyrrolidine-2,5-dicarboxylic acid]	70	91					
CN1CC23c4c5c6c7c8c9c(c%10c%11c2c2c4c4c%12c5c5c6c6c8c8c%13c9c9c%10c%10c%11c%11c2c2c4c4c%12c%12c5c5c6c8c6c8c%13c9c9c%10c%10c%11c2c2c4c4c%12c5c6c5c8c9c%10c2c45)C73C1c1cc[n+](C)cc1 (centres unmarked) [no. 12, 4-(1′-methyl [60]fullerenopyrrolidin-2′-yl)-1-methylpyridinium iodide]			slightly reduced		degraded	significantly reduced	inhibition of the digestion of M13 mp18 by the PA endonuclease domain ([5]; […]): slightly inhibited; nuclease activity of the fullerene derivative by itself [7]: weaker nuclease activity; IC50 [1]: 78 µM; IC50 [2]: 63 µM
Oc1cc2c(cc1O)CC13c4c5c6c7c8c9c(c%10c%11c1c1c4c4c%12c5c5c6c6c8c8c%13c9c9c%10c%10c%11c%11c1c1c4c4c%12c%12c5c5c6c8c6c8c%13c9c9c%10c%10c%11c1c1c4c4c%12c5c6c5c8c9c%10c1c45)C73C2 (centres unmarked) [no. 1, 1,4-dihydro-6,7-dihydroxy [60]fullerenonaphthlene]			comparable	no or weak inhibitory activity	slightly inhibited	comparable	IC50 H1N1 PR8 strain [1]: could not be calculated; IC50 H3N2 Aichi strain [2]: could not be calculated; number of NP-positive cells in comparison with the DMSO [2]: comparable; solubility in water [8]: relatively low
1,1,1′,1′-tetramethyl [60]fullerenodipyrrolidinium diiodide [no. 6]			reduced	no or weak inhibitory activity			mobility shift of M13 mp18 ([5]; lane 13): caused a mobility shift; nuclease activity of the fullerene derivative by itself [7]: significant nuclease activity; IC50 [1]: 20 µM; antiviral effects against the influenza A virus (overall conclusion) ([1]; summary of immunostaining and western blotting): strongest antiviral activity; IC50 [2]: 31 µM; antiproliferative activity [9]: antiproliferative and antibacterial activity; antibacterial activity [10]: antiproliferative and antibacterial activity
[60]fullerenotricyclopropane-1,1,1′,1′,1′′,1′′-hexacarboxylic acid [no. 8]			slightly reduced	significantly inhibited	inhibited		IC50 [1]: 37 µM; IC50 [2]: > 100 µM
O=C(O)CN1CCN(CC(=O)O)C23c4c5c6c7c8c9c(c%10c%11c2c2c4c4c%12c5c5c6c6c8c8c%13c9c9c%10c%10c%11c%11c2c2c4c4c%12c%12c5c5c6c8c6c8c%13c9c9c%10c%10c%11c2c2c4c4c%12c5c6c5c8c9c%10c2c45)C713 (centres unmarked) [no. 7, [60]fullerenopiperazine-1,4-diacetic acid]	> 100	> 100	slightly reduced	significantly inhibited	inhibited		
CCN1C(C(=O)O)C23c4c5c6c7c8c9c(c%10c%11c2c2c4c4c%12c5c5c6c6c8c8c%13c9c9c%10c%10c%11c%11c2c2c4c4c%12c%12c5c5c6c8c6c8c%13c9c9c%10c%10c%11c2c2c4c4c%12c5c6c5c8c9c%10c2c45)C73C1C(=O)O (centres unmarked) [no. 9, 1-ethyl [60]fullerenopyrrolidine-2,5-dicarboxylic acid]			comparable	no or weak inhibitory activity	slightly inhibited	comparable	IC50 H1N1 PR8 strain [1]: could not be calculated; IC50 H3N2 Aichi strain [2]: could not be calculated; number of NP-positive cells in comparison with the DMSO [2]: comparable
CC(C)C1NC(C(=O)O)C23c4c5c6c7c8c9c(c%10c%11c2c2c4c4c%12c5c5c6c6c8c8c%13c9c9c%10c%10c%11c%11c2c2c4c4c%12c%12c5c5c6c8c6c8c%13c9c9c%10c%10c%11c2c2c4c4c%12c5c6c5c8c9c%10c2c45)C713 (centres unmarked) [no. 5, 5-isopropyl [60]fullerenopyrrolidine-2-carboxylic acid]	37	> 100	reduced				
